Measured values: US20260020569A1, “PESTICIDALLY ACTIVE THIOSEMICARBAZONE COMPOUNDS” (BASF SE, priority 2021, published 2026)

Columns and labels:
Type in all cases: in vivo
[1] = test system: boll weevil (Anthonomus grandis); assay: Action on boll weevil (Anthonomus grandis), eggs on insect diet in microtiter plates; conditions: 120 h, egg and larval mortality after 5 days, read-out: mortality in comparison with untreated controls
Method: Example B3: Action on Boll Weevil (Anthonomus grandis)
For evaluating control of boll weevil (Anthonomus grandis) the test unit consisted of 96-well-microtiter plates containing an insect diet and 5-10 A. grandis eggs.
The compounds were formulated using a solution containing 75% (v/v) water and 25% (v/v) DMSO. Different concentrations of formulated compounds were sprayed onto the insect diet at 5 μl, using a custom built micro atomizer, at two replications.
After application, microtiter plates were incubated at about 25+1° C. and about 75+5% relative humidity for 5 days. Egg and larval mortality were then visually assessed.

[2] = test system: Diamond back moth (Plutella xylostella); assay: Action on diamond back moth (Plutella xylostella), cabbage leaf dip; conditions: foliar, 3rd instar larvae on cabbage leaves, 72 hours after treatment, read-out: mortality in comparison with untreated controls
Method: Example B6: Action on Diamond Back Moth (Plutella xylostella)
The active compound is dissolved at the desired concentration in a mixture of 1:1 (v/v) distilled water:acetone. Surfactant (Kinetic® HV) is added at a rate of 0.01% (v/v). The test solution is prepared at the day of use.
Leaves of cabbage were dipped in test solution and air-dried. Treated leaves were placed in petri dishes lined with moist filter paper and inoculated with ten 3rd instar larvae. Mortality was recorded 72 hours after treatment. Feeding damages were also recorded using a scale of 0-100%.

[3] = test system: Orchid thrips (Dichromothrips corbetti); assay: Action on orchid thrips (Dichromothrips corbetti), floral-immersion technique; conditions: adult thrips, 72 hours after treatment, read-out: mortality in comparison with untreated controls
Method: Example B2: Action on Orchid Thrips (Dichromothrips corbetti)
Dichromothrips corbetti adults used for bioassay were obtained from a colony maintained continuously under laboratory conditions. For testing purposes, the test compound is diluted in a 1:1 mixture of acetone:water (vol:vol), plus Kinetic® HV at a rate of 0.01% v/v.
Thrips potency of each compound was evaluated by using a floral-immersion technique. All petals of individual, intact orchid flowers were dipped into treatment solution and allowed to dry in Petri dishes. Treated petals were placed into individual re-sealable plastic along with about 20 adult thrips. All test arenas were held under continuous light and a temperature of about 28° C. for duration of the assay. After 3 days, the numbers of live thrips were counted on each petal. The percent mortality was recorded 72 hours after treatment.

[4] = test system: tobacco budworm (Heliothis virescens); assay: Action on tobacco budworm (Heliothis virescens), eggs on insect diet in microtiter plates; conditions: 120 h, egg and larval mortality after 5 days, read-out: mortality in comparison with untreated controls
Method: Example B5: Action on Tobacco Budworm (Heliothis virescens)
For evaluating control of tobacco budworm (Heliothis virescens) the test unit consisted of 96-well-microtiter plates containing an insect diet and 15-25 H. virescens eggs.
The compounds were formulated using a solution containing 75% v/v water and 25% v/v DMSO. Different concentrations of formulated compounds were sprayed onto the insect diet at 10 μl, using a custom-built micro atomizer, at two replications.
After application, microtiter plates were incubated at about 28+1° C. and about 80+5% relative humidity for 5 days. Egg and larval mortality were then visually assessed.

[5] = test system: Southern armyworm (Spodoptera eridania), 2nd instar larvae; assay: Action on southern armyworm (Spodoptera eridania), 2nd instar larvae on sprayed lima bean plants; conditions: 96 h, 2nd instar larvae on lima bean plants, 4 days after treatment, read-out: mortality in comparison with untreated controls
Method: Example B7: Action on Southern Armyworm (Spodoptera eridania), 2nd Instar Larvae
The active compounds were formulated by a Tecan liquid handler in 100% cyclohexanone as a 10,000 ppm solution supplied in tubes. The 10,000 ppm solution was serially diluted in 100% cyclohexanone to make interim solutions. These served as stock solutions for which final dilutions were made by the Tecan in 50% acetone:50% water (v/v) into 10 or 20 ml glass vials. A nonionic surfactant (Kinetic®) was included in the solution at a volume of 0.01% (v/v). The vials were then inserted into an automated electrostatic sprayer equipped with an atomizing nozzle for application to plants/insects.
Lima bean plants (variety Sieva) were grown 2 plants to a pot and selected for treatment at the 1st true leaf stage. Test solutions were sprayed onto the foliage by an automated electrostatic plant sprayer equipped with an atomizing spray nozzle. The plants were dried in the sprayer fume hood and then removed from the sprayer. Each pot was placed into perforated plastic bags with a zip closure. About 10 to 11 armyworm larvae were placed into the bag and the bags zipped closed. Test plants were maintained in a growth room at about 25° C. and about 20-40% relative humidity for 4 days, avoiding direct exposure to fluorescent light (24 hour photoperiod) to prevent trapping of heat inside the bags. Mortality and reduced feeding were assessed 4 days after treatment, compared to untreated control plants.

[6] = test system: yellow fever mosquito (Aedes aegypti); assay: whole plant or invertebrate; conditions: 48 h, larval mortality visually assessed after 2 days, read-out: mortality in comparison with untreated controls
Method: Example B1: Action on Yellow Fever Mosquito (Aedes aegypti)
For evaluating control of yellow fever mosquito (Aedes aegypti) the test unit consisted of 96-well-microtiter plates containing 200 μl of tap water per well and 5-15 freshly hatched A. aegypti larvae.
The active compounds or mixtures were formulated using a solution containing 75% (v/v) water and 25% (v/v) DMSO. Different concentrations of formulated compounds or mixtures were sprayed onto the insect diet at 2.5 μl, using a custom built micro atomizer, at two replications. For experimental mixtures in these tests identical volumes of both mixing partners at the desired concentrations respectively, were mixed together.
After application, microtiter plates were incubated at 28±1° C., 80±5% RH for 2 days. Larval mortality was then visually assessed.

[7] = test system: Silverleaf whitefly (Bemisia argentifolii) (adults); assay: Action on silverleaf whitefly (Bemisia argentifolii) adults on sprayed cotton plants; conditions: 72 h, 3 days after treatment, read-out: mortality in comparison with untreated controls
Method: Example B4: Action on Silverleaf Whitefly (Bemisia argentifolii) (Adults)
The active compounds were formulated by a Tecan liquid handler in 100% cyclohexanone as a 10,000 ppm solution supplied in tubes. The 10,000 ppm solution was serially diluted in 100% cyclohexanone to make interim solutions. These served as stock solutions for which final dilutions were made by the Tecan in 50% acetone:50% water (v/v) into 5 or 10 ml glass vials. A non-ionic surfactant (Kinetic®) was included in the solution at a volume of 0.01% (v/v). The vials were then inserted into an automated electrostatic sprayer equipped with an atomizing nozzle for application to plants/insects.
Cotton plants at the cotyledon stage (one plant per pot) were sprayed by an automated electrostatic plant sprayer equipped with an atomizing spray nozzle. The plants were dried in the sprayer fume hood and then removed from the sprayer. Each pot was placed into a plastic cup and about 10 to 12 whitefly adults (approximately 3-5 days old) were introduced. The insects were collected using an aspirator and a nontoxic Tygon® tubing connected to a barrier pipette tip. The tip, containing the collected insects, was then gently inserted into the soil containing the treated plant, allowing insects to crawl out of the tip to reach the foliage for feeding. Cups were covered with a reusable screened lid. Test plants were maintained in a growth room at about 25° C. and about 20-40% relative humidity for 3 days, avoiding direct exposure to fluorescent light (24 hour photoperiod) to prevent trapping of heat inside the cup. Mortality was assessed 3 days after treatment, compared to untreated control plants.

## Cc1ccc(C(C)C)c(N/C(=N/N=C/c2ccc(-n3cc(NC(=O)c4ccc(OC(F)(F)F)cc4)c(C)n3)cc2)SCOC(=O)N2CCOCC2)c1 [Compound C-10, [(Z)—N-(2-isopropyl-5-methyl-phenyl)-N′-[(E)-[4-[3-methyl-4-[[4-(trifluoromethoxy)benzoyl]amino]pyrazol-1-yl]phenyl]methyleneamino]carbamimidoyl]sulfanylmethyl morpholine-4-carboxylate]
[1]
  mortality at 800 ppm: ≥ 75%
[2]
  mortality at 500 ppm: ≥ 75%
[3]
  mortality at 500 ppm: ≥ 75%
[4]
  mortality at 800 ppm: ≥ 75%
[5]
  mortality at 300 ppm: ≥ 75%

## COCCOCCOCCOCCOC(=O)OCS/C(=N\N=C\c1ccc(-n2cc(NC(=O)c3ccc(OC(F)(F)F)cc3)c(C)n2)cc1C)Nc1cc(C)ccc1C(C)C [Compound C-15, [(Z)—N-(2-isopropyl-5-methyl-phenyl)-N′-[(E)-[2-methyl-4-[3-methyl-4-[[4-(trifluoromethoxy)benzoyl]amino]pyrazol-1-yl]phenyl]methyleneamino]carbamimidoyl]sulfanylmethyl 2-[2-[2-(2-methoxyethoxy)ethoxy]ethoxy]ethyl carbonate]
[1]
  mortality at 800 ppm: ≥ 75%
[6]
  mortality at 800 ppm: ≥ 50%
[7]
  mortality at 300 ppm: ≥ 75%
[2]
  mortality at 500 ppm: ≥ 75%
[3]
  mortality at 500 ppm: ≥ 75%
[4]
  mortality at 800 ppm: ≥ 75%
[5]
  mortality at 300 ppm: ≥ 75%

## Cc1ccc(C(C)C)c(N/C(=N/N=C/c2ccc(-n3cc(NC(=O)c4ccc(OC(F)(F)F)cc4)c(C)n3)cc2)SCOC(=O)C(C)C)c1 [Compound C-6, [(Z)—N-(2-isopropyl-5-methyl-phenyl)-N′-[(E)-[4-[3-methyl-4-[[4 (trifluoromethoxy)benzoyl]amino]pyrazol-1-yl]phenyl]methyleneamino]carbamimidoyl]sulfanylmethyl 2-methylpropanoate]
[1]
  mortality at 800 ppm: ≥ 75%
[6]
  mortality at 800 ppm: ≥ 50%
[2]
  mortality at 500 ppm: ≥ 75%
[3]
  mortality at 500 ppm: ≥ 75%
[4]
  mortality at 800 ppm: ≥ 75%
[5]
  mortality at 300 ppm: ≥ 75%

## COCCOCCOCCOC(=O)OCS/C(=N\N=C\c1ccc(-n2cc(NC(=O)c3ccc(OC(F)(F)F)cc3)c(C)n2)cc1)Nc1cc(C)ccc1C(C)C [Compound C-5, [(Z)—N-(2-isopropyl-5-methyl-phenyl)-N′-[(E)-[4-[3-methyl-4-[[4-(trifluoromethoxy)benzoyl]amino]pyrazol-1-yl]phenyl]methyleneamino]carbamimidoyl]sulfanylmethyl 2-[2-(2-methoxyethoxy)ethoxy]ethyl carbonate]
[1]
  mortality at 800 ppm: ≥ 75%
[6]
  mortality at 800 ppm: ≥ 50%
[7]
  mortality at 300 ppm: ≥ 75%
[2]
  mortality at 500 ppm: ≥ 75%
[3]
  mortality at 500 ppm: ≥ 75%
[4]
  mortality at 800 ppm: ≥ 75%
[5]
  mortality at 300 ppm: ≥ 75%

## Cc1ccc(C(C)C)c(N/C(=N/N=C/c2ccc(-n3cc(NC(=O)c4ccc(OC(F)(F)F)cc4)c(C)n3)cc2C)SCOC(=O)C2CC2)c1 [Compound C-22, [(Z)—N-(2-isopropyl-5-methyl-phenyl)-N′-[(E)-[2-methyl-4-[3-methyl-4-[[4-(trifluoromethoxy)benzoyl]amino]pyrazol-1-yl]phenyl]methyleneamino]carbamimidoyl]sulfanylmethyl cyclopropanecarboxylate]
[1]
  mortality at 800 ppm: ≥ 75%
[6]
  mortality at 800 ppm: ≥ 50%
[2]
  mortality at 500 ppm: ≥ 75%
[3]
  mortality at 500 ppm: ≥ 75%
[4]
  mortality at 800 ppm: ≥ 75%
[5]
  mortality at 300 ppm: ≥ 75%

## Cc1ccc(C(C)C)c(N/C(=N/N=C/c2ccc(-n3cc(NC(=O)c4ccc(OC(F)(F)F)cc4)c(C)n3)cc2C)SCOC(=O)C2CCCCC2)c1 [Compound C-21, [(Z)—N-(2-isopropyl-5-methyl-phenyl)-N′-[(E)-[2-methyl-4-[3-methyl-4-[[4-(trifluoromethoxy)benzoyl]amino]pyrazol-1-yl]phenyl]methyleneamino]carbamimidoyl]sulfanylmethyl cyclohexanecarboxylate]
[1]
  mortality at 800 ppm: ≥ 75%
[7]
  mortality at 300 ppm: ≥ 75%
[2]
  mortality at 500 ppm: ≥ 75%
[3]
  mortality at 500 ppm: ≥ 75%
[4]
  mortality at 800 ppm: ≥ 75%
[5]
  mortality at 300 ppm: ≥ 75%

## COc1ccc(/C=C/C(=O)OCS/C(=N\N=C\c2ccc(-n3cc(NC(=O)c4ccc(OC(F)(F)F)cc4)c(C)n3)cc2C)Nc2cc(C)ccc2C(C)C)cc1 [Compound C-23, [(Z)—N-(2-isopropyl-5-methyl-phenyl)-N′-[(E)-[2-methyl-4-[3-methyl-4-[[4-(trifluoromethoxy)benzoyl]amino]pyrazol-1-yl]phenyl]methyleneamino]carbamimidoyl]sulfanylmethyl (E)-3-(4-methoxyphenyl)prop-2-enoate]
[1]
  mortality at 800 ppm: ≥ 75%
[7]
  mortality at 300 ppm: ≥ 75%
[2]
  mortality at 500 ppm: ≥ 75%
[3]
  mortality at 500 ppm: ≥ 75%
[4]
  mortality at 800 ppm: ≥ 75%
[5]
  mortality at 300 ppm: ≥ 75%
